Assay results taken from US20060110790A1, “Expression system for large functional proteins” (priority 2002, published 2006).

Target: T1, co-expressed N and C halves of ABCR (Homo sapiens, UniProt P78363)
T1 construct: The cDNAs coding for the N-half (amino acids 1-1325) and C-half (amino acids 1326-2273) of ABCR; made in house; host or cells: COS-1 cells, co-transfected
T1 sequence (P78363 1-1325): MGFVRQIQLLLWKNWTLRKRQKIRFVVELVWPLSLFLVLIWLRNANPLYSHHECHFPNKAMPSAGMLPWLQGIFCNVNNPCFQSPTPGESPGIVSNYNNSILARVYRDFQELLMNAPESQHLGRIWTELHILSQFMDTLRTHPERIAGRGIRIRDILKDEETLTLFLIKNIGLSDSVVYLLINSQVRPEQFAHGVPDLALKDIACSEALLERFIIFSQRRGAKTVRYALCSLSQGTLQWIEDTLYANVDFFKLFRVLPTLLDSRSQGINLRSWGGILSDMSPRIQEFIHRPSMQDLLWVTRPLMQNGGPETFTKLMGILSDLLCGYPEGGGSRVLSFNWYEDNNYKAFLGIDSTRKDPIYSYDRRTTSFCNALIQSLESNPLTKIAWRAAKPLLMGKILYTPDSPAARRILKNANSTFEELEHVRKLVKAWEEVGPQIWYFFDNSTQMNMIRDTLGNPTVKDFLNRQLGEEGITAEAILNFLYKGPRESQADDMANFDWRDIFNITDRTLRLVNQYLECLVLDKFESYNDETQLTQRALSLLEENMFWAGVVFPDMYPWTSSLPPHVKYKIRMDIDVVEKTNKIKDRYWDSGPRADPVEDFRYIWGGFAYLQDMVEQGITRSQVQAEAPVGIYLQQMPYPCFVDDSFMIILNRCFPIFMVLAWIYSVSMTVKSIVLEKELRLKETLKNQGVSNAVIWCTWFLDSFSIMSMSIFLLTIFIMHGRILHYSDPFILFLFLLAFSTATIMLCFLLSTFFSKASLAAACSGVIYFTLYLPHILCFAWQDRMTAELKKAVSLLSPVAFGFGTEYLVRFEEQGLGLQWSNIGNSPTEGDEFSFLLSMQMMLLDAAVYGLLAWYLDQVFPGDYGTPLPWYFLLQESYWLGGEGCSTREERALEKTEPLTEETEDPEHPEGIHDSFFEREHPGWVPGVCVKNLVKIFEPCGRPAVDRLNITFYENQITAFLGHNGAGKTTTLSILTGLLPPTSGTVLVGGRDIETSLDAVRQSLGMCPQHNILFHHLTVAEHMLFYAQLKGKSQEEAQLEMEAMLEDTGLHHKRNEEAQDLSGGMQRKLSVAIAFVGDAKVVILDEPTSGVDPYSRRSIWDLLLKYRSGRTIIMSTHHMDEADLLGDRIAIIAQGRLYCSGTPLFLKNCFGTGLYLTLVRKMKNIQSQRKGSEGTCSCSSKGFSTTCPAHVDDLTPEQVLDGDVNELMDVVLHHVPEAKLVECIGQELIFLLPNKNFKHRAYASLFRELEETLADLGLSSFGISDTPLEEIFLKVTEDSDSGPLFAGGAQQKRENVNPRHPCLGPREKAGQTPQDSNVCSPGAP
T1 sequence (P78363 1326-2273): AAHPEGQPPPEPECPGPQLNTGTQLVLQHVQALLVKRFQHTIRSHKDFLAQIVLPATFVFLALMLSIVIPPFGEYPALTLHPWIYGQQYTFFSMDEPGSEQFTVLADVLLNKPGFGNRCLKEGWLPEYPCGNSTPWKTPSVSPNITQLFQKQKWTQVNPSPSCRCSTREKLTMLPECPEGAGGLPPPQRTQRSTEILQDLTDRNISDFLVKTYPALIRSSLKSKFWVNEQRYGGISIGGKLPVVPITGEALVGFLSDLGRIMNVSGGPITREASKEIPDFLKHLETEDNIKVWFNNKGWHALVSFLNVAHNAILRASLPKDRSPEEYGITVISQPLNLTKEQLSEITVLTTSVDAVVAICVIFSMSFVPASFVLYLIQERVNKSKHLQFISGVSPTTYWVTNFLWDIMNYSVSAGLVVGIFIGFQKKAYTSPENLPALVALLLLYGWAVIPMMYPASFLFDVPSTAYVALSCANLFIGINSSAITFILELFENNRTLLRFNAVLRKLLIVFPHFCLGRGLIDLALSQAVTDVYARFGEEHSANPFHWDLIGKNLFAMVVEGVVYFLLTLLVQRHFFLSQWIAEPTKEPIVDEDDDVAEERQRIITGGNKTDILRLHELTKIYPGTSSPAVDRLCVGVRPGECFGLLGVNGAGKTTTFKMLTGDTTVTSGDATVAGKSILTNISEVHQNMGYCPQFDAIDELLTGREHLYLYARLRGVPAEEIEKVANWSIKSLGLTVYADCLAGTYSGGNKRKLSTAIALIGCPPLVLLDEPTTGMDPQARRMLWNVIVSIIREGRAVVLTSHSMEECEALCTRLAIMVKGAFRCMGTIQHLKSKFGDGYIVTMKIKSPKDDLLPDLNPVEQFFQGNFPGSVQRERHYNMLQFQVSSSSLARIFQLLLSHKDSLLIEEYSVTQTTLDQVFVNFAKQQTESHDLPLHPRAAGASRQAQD
Experiment: Retinal-stimulated ATPase activity of purified protein reconstituted in lipid vesicles
Type: biochemical
Conditions: expressed in COS-1 cells, purified on Rim 3F4 column, 50 μM [α32P]ATP
Method: Membranes (from two 10 cm dishes) were solubilized in 0.5 ml of 1% Triton-X100 in Buffer A (140 mM NaCl, 20 mM Tris-HCl, pH 7.4) for 20 min on ice. For ATPase assays, the membrane preparation step was omitted and the cell suspension was solubilized directly in Buffer B (10 mg/ml soybean phospholipids, 10% glycerol, 1 mM dithiothreitol, 100 mM NaCl, 3 mM MgCl2, 50 mM NaHEPES, pH 7.4) containing 18 mM CHAPS. The supernatant after a 10 min centrifugation at 40,000 rpm (TLA100.4 rotor) was mixed with 50 μl Rim3F4 Sepharose 2B for 1 h at 4° C. The beads were washed 6 times in Buffer A containing 0.2% Triton X-100 or Buffer B containing 10 mM CHAPS and eluted with 4% SDS (for electrophoresis) or 0.2 mg/ml Rim3F4 peptide (for reconstitution and determination of ATPase activity). Purified protein (24 μl) was incubated with 6 μl of 50 mg/ml lipid (1:1 mixture of dioleoylphosphatidylethanolamine and brain polar lipid, by weight) and 3 μl n-octylglucoside for 30 min on ice. The mixture was diluted rapidly with 200 μl of Buffer C (1 mM dithiothreitol, 140 mM NaCl, 25 mM NaHEPES, pH 7.4) and passed through a 200 μl Extracti-gel column (Pierce). The flow-through containing the reconstituted protein was used for determination of ATPase activity.
ATPase activity was measured as described previously (Ahn, J., Wong, J. T., and Molday, R. S. (2000) J Biol Chem 275(27), 20399-405) using 50 μM [α^32P]ATP and thin layer chromatography. The all-trans retinal concentration was determined spectrophotometrically (λ383 nm=42.88 mM^−1 cm^−1). Protein concentration was estimated from the eluate before reconstitution by laser densitometry of Coomassie blue stained gels using bovine serum albumin as a standard. […] Direct protein measurements after reconstitution by densitometry of Western blots was about half of that in the eluate. […]
ATPase Activity of Expressed N and C Halves—The basal and retinal activated ATPase activity of full-length ABCR and the N and C halves individually or co-expressed in COS-1 cells was determined after immunoaffinity purification and reconstitution into lipid vesicles. […]

With CC1=C(/C=C/C(C)=C/C=C/C(C)=C/C=O)C(C)(C)CCC1 [all-trans retinal] the “stimulation of ATPase activity” value was 1-2 fold.
